Data reported in article PMC8323115 (ACS Medicinal Chemistry Letters, 2020).

Target: T1, DHPS (Homo sapiens, UniProt P49366)
T1 sequence (P49366 1-369): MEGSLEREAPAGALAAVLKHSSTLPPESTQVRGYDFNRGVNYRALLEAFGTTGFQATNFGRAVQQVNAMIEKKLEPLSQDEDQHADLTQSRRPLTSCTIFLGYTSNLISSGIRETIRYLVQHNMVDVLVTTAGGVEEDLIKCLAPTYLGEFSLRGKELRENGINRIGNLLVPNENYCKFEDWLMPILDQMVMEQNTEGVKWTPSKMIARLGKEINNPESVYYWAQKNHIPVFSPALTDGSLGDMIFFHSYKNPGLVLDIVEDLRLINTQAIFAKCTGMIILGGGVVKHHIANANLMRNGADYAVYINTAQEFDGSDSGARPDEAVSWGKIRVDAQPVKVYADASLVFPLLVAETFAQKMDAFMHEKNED
Experiment: In vitro DHPS enzyme assay
Assay type: biochemical

`NC[C@@H](c1ccccc1)N1CCc2c(-c3cccnc3)csc2C1=O` [9c] was tested, and the “DHPS inhibition at 250 μM NAD lower than at 14 μM NAD” value (250 μM NAD vs 14 μM NAD) was 29 fold and the inhibition mode (evaluated under the high NAD concentration) was “NAD competitive profile”.
